Data on 2 compounds can be found in PubChem BioAssay (NCI).

Among the test systems are ACHN renal; HCT-116 colon; HOP-62 NSCLC; IGROV1 ovarian; K-562 leukemia; KM12 colon; LOX IMVI melanoma; SF-295 CNS; SR leukemia; UACC-62 melanoma.
Test in all cases: growth of human tumour cells (NCI), 48 h

The structures appear in SMILES notation.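 Protocol summary: plate cells (96-well), add compound at 5 concentrations, incubate 48 h, interpolate endpoints linearly. The concentration for 50% growth inhibition is given as GI50. Definition used: TGI = concentration required for complete inhibition of growth.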 Where only a bound is given, the exact number is not on record here.

`CC(C)c1ccc(C(=O)Nc2sc3c(c2C(N)=O)CCC(=O)C3)cc1`: the GI50 in the experiment on ACHN renal was 0.343 µM; in the experiment on HCT-116 colon, 0.311 µM; in the experiment on HOP-62 NSCLC, 3.04 µM; in the experiment on IGROV1 ovarian it was 0.491 µM; with K-562 leukemia, 0.207 µM; in the experiment on KM12 colon, 0.45 µM. Further, the GI50 with LOX IMVI melanoma was 0.373 µM; in the experiment with SF-295 CNS, 1.42 µM; in the experiment with SR leukemia, 0.413 µM; in the experiment on UACC-62 melanoma it was 0.46 µM. The TGI with ACHN renal came to 1.11 µM; with HCT-116 colon, 1.43 µM; in the experiment with HOP-62 NSCLC, 18.1 µM; in the experiment with IGROV1 ovarian, 2.14 µM; in the experiment with K-562 leukemia, 3.83 µM; in the experiment with KM12 colon it was 1.85 µM. The TGI came out at 1.71 µM in the experiment on LOX IMVI melanoma, 3.61 µM with SF-295 CNS, 11 µM with SR leukemia and 1.91 µM in the experiment on UACC-62 melanoma.

Consider `COc1cc2oc(-c3ccc(O)cc3)cc(=O)c2c(OC)c1OC`, for which the TGI with ACHN renal, in the experiment on HCT-116 colon, in the experiment on HOP-62 NSCLC, with IGROV1 ovarian, in the experiment with K-562 leukemia and in the experiment on KM12 colon was greater than 100 µM in each case. Besides, the TGI with LOX IMVI melanoma, in the experiment on SF-295 CNS, with SR leukemia and in the experiment on UACC-62 melanoma was greater than 100 µM throughout.
